Results reported in patent US11787785B2 (NOVARTIS AG, priority 2021, dated 2023).

Biological target: T1, WIZ protein (HiBit-WIZ fusion protein) (Homo sapiens, UniProt O95785+Q96SW2)
T1 construct: expressed in transfected cells
Test: Quantification of WIZ protein levels in HiBit tag fusion protein assay (WIZ HiBit assay in 293T cells)
Format: cell-based
Design: remaining activity / Dmax: dose or concentration left out as unconfirmed
Settings: for Dmax at 25 µM / remaining activity at 25 µM / Dmax / remaining activity: HEK-293T; for Dmax at 25 µM: 100 − Amax; for Dmax at 25 µM / remaining activity at 25 µM: 293T cells; for Dmax at 25 µM / Dmax: read-out: % degradation of WIZ (100 − Amax); for remaining activity at 25 µM: DMSO-normalized, curve-fitted percentage of WIZ-HiBit remaining at 25 uM; for remaining activity at 25 µM / remaining activity: read-out: WIZ Amax; for DC50: WIZ HiBit assay in 293T cells, 10-point, 5-fold dose response, highest concentration 25 μM, about 18 hours, read-out: WIZ AC50
Method in brief: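 HiBit-tagged WIZ (N-terminal tag, HSVTK promoter) stably expressed single-copy in 293T cells; 10-point 1:5 compound series, top 25 μM, ~18 h at 37 °C. Lytic HiBit/LgBit luminescence read; Amax = curve-fitted % WIZ-HiBit remaining at 25 μM, DMSO normalized to 100%.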

T1 sequence (O95785 whole entry, the tested form may be a part): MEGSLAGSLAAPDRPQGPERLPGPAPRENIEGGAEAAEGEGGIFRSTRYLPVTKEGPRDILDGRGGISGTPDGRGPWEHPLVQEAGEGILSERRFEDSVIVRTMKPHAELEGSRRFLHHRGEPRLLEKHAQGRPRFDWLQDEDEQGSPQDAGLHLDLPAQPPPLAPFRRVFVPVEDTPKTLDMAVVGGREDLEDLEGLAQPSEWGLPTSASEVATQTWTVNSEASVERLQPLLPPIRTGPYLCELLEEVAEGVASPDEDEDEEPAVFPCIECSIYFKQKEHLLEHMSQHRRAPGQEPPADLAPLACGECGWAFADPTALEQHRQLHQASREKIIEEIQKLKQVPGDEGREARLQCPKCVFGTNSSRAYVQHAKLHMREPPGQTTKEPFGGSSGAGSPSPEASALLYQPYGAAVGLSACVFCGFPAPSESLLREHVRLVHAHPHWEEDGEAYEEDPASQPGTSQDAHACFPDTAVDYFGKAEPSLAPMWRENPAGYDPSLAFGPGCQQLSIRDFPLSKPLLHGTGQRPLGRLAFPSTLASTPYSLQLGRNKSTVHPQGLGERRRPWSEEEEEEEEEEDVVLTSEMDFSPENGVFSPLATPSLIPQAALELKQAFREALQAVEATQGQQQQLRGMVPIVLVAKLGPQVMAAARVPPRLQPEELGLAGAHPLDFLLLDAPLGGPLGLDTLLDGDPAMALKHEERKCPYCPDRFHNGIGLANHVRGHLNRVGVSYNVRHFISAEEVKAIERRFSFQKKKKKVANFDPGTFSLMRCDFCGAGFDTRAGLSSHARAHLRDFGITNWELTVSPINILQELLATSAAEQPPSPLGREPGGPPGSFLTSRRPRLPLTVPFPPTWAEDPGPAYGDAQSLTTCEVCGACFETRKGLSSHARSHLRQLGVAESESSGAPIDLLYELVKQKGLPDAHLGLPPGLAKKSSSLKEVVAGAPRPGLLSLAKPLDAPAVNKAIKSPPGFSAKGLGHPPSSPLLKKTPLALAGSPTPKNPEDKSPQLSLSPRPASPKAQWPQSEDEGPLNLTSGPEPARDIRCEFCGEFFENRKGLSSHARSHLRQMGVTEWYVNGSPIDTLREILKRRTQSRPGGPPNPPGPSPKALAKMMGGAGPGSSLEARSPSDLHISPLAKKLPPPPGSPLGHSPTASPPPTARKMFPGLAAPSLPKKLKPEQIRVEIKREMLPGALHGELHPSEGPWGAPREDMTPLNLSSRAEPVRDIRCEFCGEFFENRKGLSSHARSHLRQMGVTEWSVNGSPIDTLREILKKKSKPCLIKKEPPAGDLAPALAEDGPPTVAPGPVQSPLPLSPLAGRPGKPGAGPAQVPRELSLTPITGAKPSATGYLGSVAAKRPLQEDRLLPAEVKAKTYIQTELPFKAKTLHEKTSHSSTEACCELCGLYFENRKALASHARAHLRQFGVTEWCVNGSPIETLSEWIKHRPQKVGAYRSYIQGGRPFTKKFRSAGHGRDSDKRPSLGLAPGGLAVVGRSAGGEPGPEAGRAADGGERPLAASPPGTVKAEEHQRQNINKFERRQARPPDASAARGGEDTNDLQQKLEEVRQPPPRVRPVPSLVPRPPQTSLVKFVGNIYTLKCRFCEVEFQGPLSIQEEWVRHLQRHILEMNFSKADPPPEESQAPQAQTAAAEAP
T1 sequence (Q96SW2 whole entry, the tested form may be a part): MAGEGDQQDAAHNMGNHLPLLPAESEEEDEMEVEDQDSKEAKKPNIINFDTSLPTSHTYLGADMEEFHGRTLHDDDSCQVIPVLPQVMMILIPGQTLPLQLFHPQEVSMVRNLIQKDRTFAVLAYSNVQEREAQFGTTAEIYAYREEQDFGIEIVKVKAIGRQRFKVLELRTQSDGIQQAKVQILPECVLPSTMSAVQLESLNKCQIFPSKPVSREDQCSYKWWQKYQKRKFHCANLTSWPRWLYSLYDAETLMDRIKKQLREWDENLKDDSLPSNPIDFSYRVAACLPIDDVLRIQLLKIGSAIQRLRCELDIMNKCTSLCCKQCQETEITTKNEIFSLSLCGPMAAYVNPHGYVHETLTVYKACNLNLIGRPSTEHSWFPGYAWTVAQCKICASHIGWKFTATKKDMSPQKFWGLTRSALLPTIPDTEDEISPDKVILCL
T1 sequence (Q16531 whole entry partner, the tested form may be a part): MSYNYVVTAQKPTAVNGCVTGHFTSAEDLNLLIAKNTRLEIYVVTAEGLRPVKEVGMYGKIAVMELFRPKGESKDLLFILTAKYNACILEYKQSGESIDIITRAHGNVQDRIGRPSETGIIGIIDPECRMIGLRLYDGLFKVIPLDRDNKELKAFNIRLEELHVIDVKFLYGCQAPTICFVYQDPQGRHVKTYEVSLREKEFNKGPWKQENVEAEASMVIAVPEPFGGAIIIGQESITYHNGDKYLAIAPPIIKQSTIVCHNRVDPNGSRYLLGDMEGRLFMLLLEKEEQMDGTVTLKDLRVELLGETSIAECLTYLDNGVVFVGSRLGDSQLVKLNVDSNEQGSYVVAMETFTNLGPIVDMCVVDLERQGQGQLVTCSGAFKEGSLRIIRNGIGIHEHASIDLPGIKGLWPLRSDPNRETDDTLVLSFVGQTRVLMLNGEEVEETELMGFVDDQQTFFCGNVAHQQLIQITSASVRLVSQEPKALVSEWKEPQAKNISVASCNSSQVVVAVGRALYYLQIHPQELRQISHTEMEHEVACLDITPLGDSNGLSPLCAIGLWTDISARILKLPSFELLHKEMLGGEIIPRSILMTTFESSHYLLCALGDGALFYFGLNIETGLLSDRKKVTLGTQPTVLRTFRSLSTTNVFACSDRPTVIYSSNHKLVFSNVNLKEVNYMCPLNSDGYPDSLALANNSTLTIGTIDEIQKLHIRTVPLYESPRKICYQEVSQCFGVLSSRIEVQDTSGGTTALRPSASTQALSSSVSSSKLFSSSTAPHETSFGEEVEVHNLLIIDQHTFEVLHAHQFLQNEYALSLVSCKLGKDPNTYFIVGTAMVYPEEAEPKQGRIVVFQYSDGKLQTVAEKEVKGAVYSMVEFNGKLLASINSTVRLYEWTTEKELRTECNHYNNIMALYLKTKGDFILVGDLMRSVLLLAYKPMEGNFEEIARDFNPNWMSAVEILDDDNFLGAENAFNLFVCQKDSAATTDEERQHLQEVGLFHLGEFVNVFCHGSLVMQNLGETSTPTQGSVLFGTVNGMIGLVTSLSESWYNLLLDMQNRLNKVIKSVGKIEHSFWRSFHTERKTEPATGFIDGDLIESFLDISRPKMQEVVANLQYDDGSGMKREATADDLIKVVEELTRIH

Compound	Dmax at 25 µM [%]	remaining activity at 25 µM [%]	DC50 [nM]	Dmax [%]	remaining activity [%]
O=C1CCN(c2cnn3ccc(CC4CCN(S(=O)(=O)C5CC5)CC4)cc23)C(=O)N1 [Example 89]	77	23	285		
CS(=O)(=O)N1CCC(Cc2ccn3ncc(N4CCC(=O)NC4=O)c3c2)CC1 [Example 90]	77	23	2000		
O=C1CCN(c2cnn3ccc(CC4CCN(S(=O)(=O)c5ccccc5)CC4)cc23)C(=O)N1 [Example 91]	74	26	150		
COCCS(=O)(=O)N1CCC(Cc2ccn3ncc(N4CCC(=O)NC4=O)c3c2)CC1 [Example 92]	69	31	131		
COC(=O)N1CCC(Cc2ccn3ncc(N4CCC(=O)NC4=O)c3c2)CC1 [Example 93]	62	38	6520		
O=C1CCN(c2cnn3ccc(CC4CCN(C(=O)Oc5ccccc5)CC4)cc23)C(=O)N1 [Example 94]	62	38	3990		
CC(C)COC(=O)N1CCC(Cc2ccn3ncc(N4CCC(=O)NC4=O)c3c2)CC1 [Example 95]	43	57	> 25000		
O=C1CCN(c2cnn3ccc(CC4CCN(C(=O)OC5CCCCC5)CC4)cc23)C(=O)N1 [Example 96]	42	58	> 25000		
CC(C)(C)OC(=O)N1CCC(Cc2ccn3ncc(N4CCC(=O)NC4=O)c3c2)CC1 [Example 97, tert-butyl 4-((3-(2,4-dioxotetrahydropyrimidin-1(2H)-yl)pyrazolo[1,5-a]pyridin-5-yl)methyl)piperidine-1-carboxylate]	44	56	24800		
CC(C)C(=O)N1CCC(Cc2ccn3ncc(N4CCC(=O)NC4=O)c3c2)CC1 [Example 98, 1-(5-((1-isobutyrylpiperidin-4-yl)methyl)pyrazolo[1,5-a]pyridin-3-yl)dihydropyrimidine-2,4(1H,3H)-dione]			587	59	41
O=C1CCN(c2cnn3ccc(CC4CCN(C(=O)C5CCCCC5)CC4)cc23)C(=O)N1 [Example 99]	52	48	1830		
O=C1CCN(c2cnn3ccc(CC4CCN(C(=O)C5(C(F)(F)F)CC5)CC4)cc23)C(=O)N1 [Example 100]	42	58	755		
O=C1CCN(c2cnn3ccc(CC4CCN(C(=O)c5ccccc5)CC4)cc23)C(=O)N1 [Example 101]	33	67	> 25000		
O=C1CCN(c2cnn3ccc(CC4CCN(C(=O)CCc5ccccc5)CC4)cc23)C(=O)N1 [Example 102]	40	60	165		
O=C1CCN(c2cnn3ccc(CC4CCN(C(=O)CCC5CCCCC5)CC4)cc23)C(=O)N1 [Example 103]	28	72	82		
CC(=O)N1CCC(Cc2ccn3ncc(N4CCC(=O)NC4=O)c3c2)CC1 [Example 104, 1-(5-((1-acetylpiperidin-4-yl)methyl)pyrazolo[1,5-a]pyridin-3-yl)dihydropyrimidine-2,4(1H,3H)-dione]			7360	62	38
COC(C)(C)CN1CCC(Cc2ccn3ncc(N4CCC(=O)NC4=O)c3c2)CC1 [Example 105, 1-(5-((1-(2-methoxy-2-methylpropyl)piperidin-4-yl)methyl)pyrazolo[1,5-a]pyridin-3-yl)dihydropyrimidine-2,4(1H,3H)-dione]			2160	64	36
CC(C)(O)CN1CCC(Cc2ccn3ncc(N4CCC(=O)NC4=O)c3c2)CC1 [Example 106, 1-(5-((1-(2-hydroxy-2-methylpropyl)piperidin-4-yl)methyl)pyrazolo[1,5-a]pyridin-3-yl)dihydropyrimidine-2,4(1H,3H)-dione]	68	32	283		

Compound	Dmax at 25 µM [%]	remaining activity at 25 µM [%]	DC50 [nM]	Dmax [%]	remaining activity [%]
O=C1CCN(c2cnn3ccc(CC4CCN(CC5(F)CCCCC5)CC4)cc23)C(=O)N1 [Example 107, 1-(5-((1-((1-fluorocyclohexyl)methyl)piperidin-4-yl)methyl)pyrazolo[1,5-a]pyridin-3-yl)dihydropyrimidine-2,4(1H,3H)-dione]	78	22	31		
O=C1CCN(c2cnn3ccc(CC4CCNCC4)cc23)C(=O)N1 [Example 108, 1-(5-(piperidin-4-ylmethyl)pyrazolo[1,5-a]pyridin-3-yl)dihydropyrimidine-2,4(1H,3H)-dione]	34	66	1340		
CC(C)(C)CN1CCC(Cc2ccn3ncc(N4CCC(=O)NC4=O)c3c2)CC1 [Example 110]	79	21	44		
O=C1CCN(c2cnn3ccc(CC4CCN(Cc5ccccn5)CC4)cc23)C(=O)N1 [Example 111]	56	44	304		
O=C1CCN(c2cnn3ccc(CC4CCN(CC(F)(F)C5CCCCC5)CC4)cc23)C(=O)N1 [Example 112, 1-(5-((1-(2-cyclohexyl-2,2-difluoroethyl)piperidin-4-yl)methyl)pyrazolo[1,5-a]pyridin-3-yl)dihydropyrimidine-2,4(1H,3H)-dione]	66	34	16		
C[C@@H]1CC(CN2CCC(Cc3ccn4ncc(N5CCC(=O)NC5=O)c4c3)CC2)C[C@H](C)O1 (stereo partly drawn) [Example 113]	88	12	4		
Cn1nccc1CN1CCC(Cc2ccn3ncc(N4CCC(=O)NC4=O)c3c2)CC1 [Example 114]	68	32	90		
O=C1CCN(c2cnn3ccc(CC4CCN(Cc5cscn5)CC4)cc23)C(=O)N1 [Example 115]	54	46	267		
Cn1cnc(CN2CCC(Cc3ccn4ncc(N5CCC(=O)NC5=O)c4c3)CC2)c1 [Example 116]	39	61	1700		
O=C1CCN(c2cnn3ccc(CC4CCN(CC56CC7CC(CC(C7)C5)C6)CC4)cc23)C(=O)N1 [Example 117]	90	10	1		
CC1(CN2CCC(Cc3ccn4ncc(N5CCC(=O)NC5=O)c4c3)CC2)COC1 [Example 118, 1-(5-((1-((3-methyloxetan-3-yl)methyl)piperidin-4-yl)methyl)pyrazolo[1,5-a]pyridin-3-yl)dihydropyrimidine-2,4(1H,3H)-dione]	64	36	166		
O=C1CCN(c2cnn3ccc(CC4CCN(CC5COC5)CC4)cc23)C(=O)N1 [Example 119, 1-(5-((1-(oxetan-3-ylmethyl)piperidin-4-yl)methyl)pyrazolo[1,5-a]pyridin-3-yl)dihydropyrimidine-2,4(1H,3H)-dione]	82	18	109		
O=C1CCN(c2cnn3ccc(CC4CCN(CCc5c[nH]cn5)CC4)cc23)C(=O)N1 [Example 120, 1-(5-((1-(2-(1H-imidazol-4-yl)ethyl)piperidin-4-yl)methyl)pyrazolo[1,5-a]pyridin-3-yl)dihydropyrimidine-2,4(1H,3H)-dione]	66	34	1430		
O=C1CCN(c2cnn3ccc(CC4CCN(CC(CO)CO)CC4)cc23)C(=O)N1 [Example 121, 1-(5-((1-(3-hydroxy-2-(hydroxymethyl)propyl)piperidin-4-yl)methyl)pyrazolo[1,5-a]pyridin-3-yl)dihydropyrimidine-2,4(1H,3H)-dione]	50	50	> 25000		
COc1ccccc1CN1CCC(Cc2ccn3ncc(N4CCC(=O)NC4=O)c3c2)CC1 [Example 122, 1-(5-((1-(2-methoxybenzyl)piperidin-4-yl)methyl)pyrazolo[1,5-a]pyridin-3-yl)dihydropyrimidine-2,4(1H,3H)-dione]	55	45	2580		
O=C1CCN(c2cnn3ccc(CC4(F)CCN(CC5CCCCC5)CC4)cc23)C(=O)N1 [Example 123, 1-(5-((1-(cyclohexylmethyl)-4-fluoropiperidin-4-yl)methyl)pyrazolo[1,5-a]pyridin-3-yl)dihydropyrimidine-2,4(1H,3H)-dione]	68	32	95		
CC(C)CN1CCC(F)(Cc2ccn3ncc(N4CCC(=O)NC4=O)c3c2)CC1 [Example 124, 1-(5-((4-fluoro-1-isobutylpiperidin-4-yl)methyl)pyrazolo[1,5-a]pyridin-3-yl)dihydropyrimidine-2,4(1H,3H)-dione]	58	42	502		
O=C1CCN(c2cnn3ccc(CC4(F)CCN(CC5CCC5)CC4)cc23)C(=O)N1 [Example 125, 1-(5-((1-(cyclobutylmethyl)-4-fluoropiperidin-4-yl)methyl)pyrazolo[1,5-a]pyridin-3-yl)dihydropyrimidine-2,4(1H,3H)-dione]	55	45	596		
